Measured values taken from US20180282323A1, “Mesoionic imidazole derivatives as insecticides” (BAYER CROPSCIENCE AKTIENGESELLSCHAFT, priority 2015, published 2018).

Key:
Myzus persicae [1] = experiment: Myzus persicae oral test; format: in vivo; conditions: application rate 20 ppm, oral uptake through parafilm, after 5 days
Outline: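 Compound dissolved in acetone, diluted with water, then mixed into IPL41 insect medium with sugar in microtitre plates under parafilm. Mixed-population green peach aphids fed through the membrane; % mortality scored after 5 days (100% = all killed).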

Diabrotica balteata = Diabrotica balteata spray test; format: in vivo; conditions: application rate 160 μg/well, wheat grains with beetle larvae, after 7 days
Method: Diabrotica balteata—Spray Test Solvent: 78 parts by weight of acetone • • 1.5 parts by weight of dimethylformamide Emulsifier: alkylaryl polyglycol ether
(§1) To produce a suitable active ingredient formulation, 1 part by weight of active ingredient is dissolved with the stated parts by weight of solvent and made up with water containing an emulsifier concentration of 1000 ppm until the desired concentration is attained. To produce further test concentrations, the formulation is diluted with emulsifier-containing water.
Pre-swollen wheat grains (Triticum aestivum) are incubated in a multiwell plate filled with agar and a little water for one day (5 seed grains per cavity). The germinated wheat grains are sprayed with an active ingredient formulation of the desired concentration. Subsequently, each cavity is infected with 10-20 beetle larvae of Diabrotica balteata.
After 7 days, the efficacy in % is determined. 100% means that all wheat plants have grown as in the untreated, uninfected control; 0% means that no wheat plant has grown.

[2] = log P by HPLC on reversed-phase column (EEC directive 79/831 Annex V.A8); format: physicochemical; conditions: for log p: HPLC on reversed-phase column (footnote a); for log p a): HPLC on reversed-phase column
Outline: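 Determined per EEC directive 79/831 Annex V.A8 by HPLC on a reversed-phase C18 column at 43° C.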

Myzus persicae [3] = experiment: Myzus persicae spray test (Chinese cabbage leaf discs); format: in vivo; conditions: application rate 500 g/ha, after 6 days
Method: Myzus persicae—Spray Test Solvent: 78 parts by weight of acetone • • 1.5 parts by weight of dimethylformamide Emulsifier: alkylaryl polyglycol ether
as §1
Discs of Chinese cabbage leaves (Brassica pekinensis) infested by all stages of the green peach aphid (Myzus persicae) are sprayed with an active ingredient formulation of the desired concentration.
After 6 days, the efficacy in % is determined. 100% means that all the aphids have been killed; 0% means that no aphids have been killed.

Row | SMILES | efficacy (Myzus persicae [1]) [%] | efficacy (Diabrotica balteata) [%] | log p [2] | efficacy (Myzus persicae [3]) [%] | log p a) [2]
1 | O=C(Cn1cc(Cl)cn1)c1c([O-])n(Cc2ccc(Cl)nc2)c2cccc[n+]12 [Example I-1-004] | 100 | 100 | 1.96 | 90 | 
2 | Cc1ccc[n+]2c(C(=O)COC(C)C)c([O-])n(Cc3cnc(Cl)s3)c12 [Example I-1-292] | 100 | 100 |  | 90 | 1.97
3 | O=C(NCc1ccccc1)c1c([O-])n(Cc2cnc(Cl)s2)c2cccc[n+]12 [Example I-1-148] | 100 | 100 | 2.41 |  | 
4 | O=C(Nc1ccc(F)cc1F)c1c([O-])n(Cc2cnc(Cl)s2)c2cccc[n+]12 [Example I-1-232] | 90 | 100 |  |  | 3.13
5 | O=C(Nc1cccc(OC(F)(F)F)c1)c1c([O-])n(Cc2cnc(Cl)s2)c2cccc[n+]12 [Example I-1-230] |  | 100 |  |  | 3.87
6 | CNC(=O)c1c([O-])n(Cc2cnc(Cl)s2)c2cccc[n+]12 [Example I-1-128] |  | 100 | 1.31 |  | 
7 | COC(=O)c1c([O-])n(C(C)c2cnc(Cl)s2)c2c(C)ccc[n+]12 (stereo not drawn) [Example I-1-287] | 100 | 80 |  |  | 1.68
8 | O=C(Nc1ncccc1F)c1c([O-])n(Cc2cnc(Cl)s2)c2cccc[n+]12 [Example I-1-284] | 100 | 80 |  | 90 | 1.68
9 | O=C(Nc1cccc(C(F)(F)F)c1)c1c([O-])n(Cc2cnc(Cl)s2)c2cccc[n+]12 [Example I-1-233] |  | 80 |  |  | 3.76
10 | Cc1ccc[n+]2c(C(=O)NC3CC3)c([O-])n(Cc3cnc(Cl)s3)c12 [Example I-1-203] | 100 | 100 |  |  | 1.93
11 | O=C(Nc1c(Cl)cccc1Cl)c1c([O-])n(Cc2cnc(Cl)s2)c2cccc[n+]12 [Example I-1-282] | 100 | 100 |  | 90 | 2.8
12 | Cc1ccc[n+]2c(C(=O)Nc3c(F)cccc3F)c([O-])n(C(C)c3cnc(Cl)s3)c12 (stereo not drawn) [Example I-1-288] | 100 | 100 |  |  | 2.76
13 | O=C(COCc1ccccc1)c1c([O-])n(Cc2cnc(Cl)s2)c2cccc[n+]12 [Example I-1-041] | 100 | 80 | 2.35 |  | 
14 | O=C(Nc1c(F)cccc1Cl)c1c([O-])n(Cc2cnc(Cl)s2)c2cccc[n+]12 [Example I-1-283] | 100 | 100 |  | 100 | 2.57
15 | Cc1ccc[n+]2c(C(=O)Nc3cccc(C(F)(F)F)c3)c([O-])n(Cc3cnc(Cl)s3)c12 [Example I-1-216] | 100 | 100 |  |  | 4.06
16 | COC(=O)c1c([O-])n(Cc2cnc(Cl)s2)c2cccc(C)[n+]12 [Example I-1-122] | 100 |  | 1.32 | 90 | 
17 | CNC(=O)c1c([O-])n(C(C)c2ccc(Cl)nc2)c2cccc[n+]12 (stereo not drawn) [Example I-1-246] | 90 | 100 |  | 90 | 1.41
18 | Cn1nccc1NC(=O)c1c([O-])n(Cc2ccc(Cl)nc2)c2cccc[n+]12 [Example I-1-325] | 100 |  |  | 90 | 1.49
19 | O=C(Nc1c(F)cccc1F)c1c([O-])n(Cc2ccc(Cl)nc2)c2cccc[n+]12 [Example I-1-313] | 100 |  |  | 90 | 2.27

Row | SMILES | efficacy (Myzus persicae [1]) [%] | efficacy (Diabrotica balteata) [%] | log p [2] | efficacy (Myzus persicae [3]) [%] | log p a) [2]
20 | O=C(NC1CCC1)c1c([O-])n(Cc2cnc(Cl)s2)c2cccc[n+]12 [Example I-1-135] | 90 | 80 | 2.11 |  | 
21 | COCC(=O)c1c([O-])n(Cc2cncnc2)c2cccc[n+]12 [Example I-1-023] | 100 |  | 0.4 | 100 | 
22 | O=C(Nc1c(Cl)ccnc1Cl)c1c([O-])n(Cc2cnc(Cl)s2)c2cccc[n+]12 [Example I-1-305] | 100 |  |  | 90 | 2.14
23 | CC(=O)c1c([O-])n(Cc2ccc(Cl)nc2)c2cccc[n+]12 [Example I-1-036] | 100 | 100 | 1.2 | 90 | 
24 | COC(=O)c1c([O-])n(Cc2ccc(Cl)nc2)c2cccc[n+]12 [Example I-1-101] | 100 |  | 1.18 | 90 | 
25 | CCCNC(=O)c1c([O-])n(Cc2cnc(Cl)s2)c2cccc[n+]12 [Example I-1-129] | 100 | 100 | 1.98 |  | 
26 | Cc1cccc(NC(=O)c2c([O-])n(Cc3cnc(Cl)s3)c3cccc[n+]23)c1 [Example I-1-235] | 90 | 100 |  |  | 3.21
27 | Cc1ccc[n+]2c(C(=O)NC3CC3)c([O-])n(C(C)c3cnc(Cl)s3)c12 (stereo not drawn) [Example I-1-290] |  | 100 |  |  | 2.2
28 | CCCNC(=O)c1c([O-])n(C(C)c2ccc(Cl)nc2)c2c(C)ccc[n+]12 (racemic) [Example I-1-258] |  | 80 |  |  | 2.23
29 | CC(c1ccc(Cl)nc1)n1c([O-])c(C(=O)Nc2cccc(C(F)(F)F)c2)[n+]2ccccc12 (stereo not drawn) [Example I-1-238] |  | 80 |  |  | 3.72
30 | C[S+]([O-])CC(=O)c1c([O-])n(Cc2ccc(Cl)nc2)c2cccc[n+]12 (stereo not drawn) [Example I-1-022] | 100 |  | 0.91 | 100 | 
31 | Cc1ccn(CC(=O)c2c([O-])n(Cc3cnc(Cl)s3)c3c(C)ccc[n+]23)n1 [Example I-1-092] | 100 |  | 1.84 | 90 | 
32 | CCCNC(=O)c1c([O-])n(Cc2cnc(Cl)s2)c2c(C)ccc[n+]12 [Example I-1-267] |  | 100 |  | 90 | 2.26
33 | Cn1nccc1OCC(=O)c1c([O-])n(Cc2cnc(Cl)s2)c2cccc[n+]12 [Example I-1-086] | 100 |  | 1.53 | 100 | 
34 | Cc1ccc[n+]2c(C(=O)Nc3c(F)cccc3F)c([O-])n(Cc3cnc(Cl)s3)c12 [Example I-1-291] |  | 80 |  |  | 3.07
35 | Cc1ccc[n+]2c(C(=O)Nc3ncccc3F)c([O-])n(Cc3cnc(Cl)s3)c12 [Example I-1-274] | 100 |  |  | 90 | 1.78
36 | O=C(Cn1cccn1)c1c([O-])n(Cc2ccc(Cl)nc2)c2ccc(F)c[n+]12 [Example I-1-106] | 90 |  | 1.53 | 90 | 
37 | N#Cc1cnn(CC(=O)c2c([O-])n(Cc3cnc(Cl)s3)c3cccc[n+]23)c1 [Example I-1-015] | 100 |  | 1.68 | 90 | 
38 | Cc1ccccc1NC(=O)c1c([O-])n(Cc2ccc(Cl)nc2)c2cccc[n+]12 [Example I-1-328] | 100 |  |  | 90 | 2.73
